Results on 14 molecules are retold here after patent US8188139B2, “Heterocyclic-substituted phenyl methanones” (Hoffman-La Roche Inc., priority 2005, dated 2012).

For the test, the target named is T1, mGlyT-1b (Mus musculus, UniProt P28571).
T1 construct: host or cells: Flp-in-CHO
T1 sequence (P28571 1-651 isoform P28571-2): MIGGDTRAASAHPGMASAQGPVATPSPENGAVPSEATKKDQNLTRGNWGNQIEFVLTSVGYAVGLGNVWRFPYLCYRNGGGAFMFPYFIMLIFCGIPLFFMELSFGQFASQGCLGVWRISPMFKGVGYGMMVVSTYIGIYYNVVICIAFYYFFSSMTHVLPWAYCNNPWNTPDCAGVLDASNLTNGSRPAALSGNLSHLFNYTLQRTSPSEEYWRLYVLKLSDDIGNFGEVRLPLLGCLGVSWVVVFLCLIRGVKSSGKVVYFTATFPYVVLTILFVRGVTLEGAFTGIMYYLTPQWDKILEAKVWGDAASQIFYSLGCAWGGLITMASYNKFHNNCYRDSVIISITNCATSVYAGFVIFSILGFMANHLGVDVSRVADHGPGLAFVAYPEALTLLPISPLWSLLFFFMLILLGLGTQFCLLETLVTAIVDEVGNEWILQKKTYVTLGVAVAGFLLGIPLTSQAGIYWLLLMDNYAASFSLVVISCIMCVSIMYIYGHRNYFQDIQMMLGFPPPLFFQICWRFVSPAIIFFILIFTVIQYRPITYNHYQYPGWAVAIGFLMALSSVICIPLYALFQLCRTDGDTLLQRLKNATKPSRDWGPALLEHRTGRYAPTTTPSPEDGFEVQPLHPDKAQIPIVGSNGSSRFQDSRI
Put plainly: Glycine uptake inhibition assay (mGlyT-1b). The test is classed as cell-based. The note with it: inhibition of [3H]-glycine uptake in Flp-in-CHO cells transfected with mGlyT-1b cDNA; 20 min preincubation at 22° C.; read-out: IC50 (μM) at GlyT-1. How it is done:
DMEM complete medium: Nutrient mixture F-12 (Gibco Life-technologies), fetal bovine serum (FBS) 5%, (Gibco life technologies), Penicillin/Streptomycin1% (Gibco life technologies), Hygromycin 0.6 mg/ml (Gibco life technologies), Glutamine 1 mM Gibco life technologies)
Uptake buffer (UB): 150 mM NaCl, 10 mM Hepes-Tris, pH 7.4, 1 mM CaCl2, 2.5 mM KCl, 2.5 mM MgSO4, 10 mM (+) D-glucose.
Flp-in™-CHO (Invitrogen Cat n^o R758-07) cells stably transfected with mGlyT1b cDNA.
Glycine Uptake Inhibition Assay (mGlyT-1b)
On day 1 mammalian cells, (Flp-in™-CHO), transfected with mGlyT-1b cDNA, were plated at the density of 40,000 cells/well in complete F-12 medium, without hygromycin in 96-well culture plates. On day 2, the medium was aspirated, and the cells were washed twice with uptake buffer (UB). The cells were then incubated for 20 min at 22° C. with either (i) no potential competitor, (ii) 10 mM non-radioactive glycine, (iii) a concentration of a potential inhibitor. A range of concentrations of the potential inhibitor was used to generate data for calculating the concentration of inhibitor resulting in 50% of the effect (e.g. IC50, the concentration of the competitor inhibiting glycine uptake of 50%). A solution was then immediately added containing [^3H]-glycine 60 nM (11-16 Ci/mmol) and 25 μM non-radioactive glycine. The plates were incubated with gentle shaking, and the reaction was stopped by aspiration of the mixture and washing (three times) with ice-cold UB. The cells were lysed with scintillation liquid, shaken 3 hours, and the radioactivity in the cells was counted using a scintillation counter.

As to `CC(C)COc1ccc(S(C)(=O)=O)cc1C(=O)N1Cc2cc(C(F)(F)F)cnc2C1` [Example 125, (2-Isobutoxy-5-methanesulfonyl-phenyl)-(3-trifluoromethyl-5,7-dihydro-pyrrolo[3,4-b]pyridin-6-yl)-methanone], the IC50 was 0.03 µM.
As for `C[C@H](Oc1ccc(S(C)(=O)=O)cc1C(=O)N1Cc2ccc(OCC(F)(F)F)cc2C1)C(F)(F)F` [Example 357, [5-Methanesulfonyl-2-((S)-2,2,2-trifluoro-1-methyl-ethoxy)-phenyl]-[5-(2,2,2-trifluoro-ethoxy)-1,3-dihydro-isoindol-2-yl]-methanone], the figure is 0.03 µM; as for `CS(=O)(=O)c1ccc(OCC(F)(F)C(F)(F)F)c(C(=O)N2Cc3cc(Cl)c(N4C5CCC4COC5)cc3C2)c1` [Example 363, [5-Chloro-6-(3-oxa-8-aza-bicyclo[3.2.1]oct-8-yl)-1,3-dihydro-isoindol-2-yl]-[5-methanesulfonyl-2-(2,2,3,3,3-pentafluoro-propoxy)-phenyl]-methanone], 0.004 µM; as for `CNS(=O)(=O)c1ccc(OC(C)C)c(C(=O)N2Cc3ccc(C(F)(F)F)cc3C2)c1` [Example 43, 4-Isopropoxy-N-methyl-3-(5-trifluoromethyl-1,3-dihydro-isoindole-2-carbonyl)-benzenesulfonamide], 0.034 µM.
With `C[C@H](Oc1ccc(S(C)(=O)=O)cc1C(=O)N1Cc2cc(Cl)c(C3CCOC3)cc2C1)C(F)(F)F` (mixture of isomers) [Example 359, [5-Chloro-6-(tetrahydro-furan-3-yl)-1,3-dihydro-isoindol-2-yl]-[5-methanesulfonyl-2-((S)-2,2,2-trifluoro-1-methyl-ethoxy)-phenyl]-methanone] the figure was 0.01 µM; with `Cc1cc2c(cc1C1CCOCC1)CN(C(=O)c1cc(S(C)(=O)=O)ccc1O[C@@H](C)C(F)(F)F)C2` [Example 300], 0.017 µM.
In the case of `CS(=O)(=O)c1ccc(OCC2CCC2)c(C(=O)N2Cc3cc(C(F)(F)F)cnc3C2)c1` [Example 124, (2-Cyclobutyl-methoxy-5-methane-sulfonyl-phenyl)-(3-trifluoromethyl-5,7-dihydro-pyrrolo[3,4-b]pyridin-6-yl)-methanone], the half-maximal inhibitory concentration (IC50) turned out to be 0.03 µM.
For `CC(C)COc1ccc(S(C)(=O)=O)cc1C(=O)N1Cc2ccc(C3CCOCC3)cc2C1` [Example 270, (2-Isobutoxy-5-methanesulfonyl-phenyl)-[5-(tetrahydro-pyran-4-yl)-1,3-dihydro-isoindol-2-yl]-methanone], the IC50 came to 0.035 µM.
For `Cc1cc2c(cc1Cl)CN(C(=O)c1cc(S(C)(=O)=O)ccc1OCC(C)C)C2` [Example 56, (5-Chloro-6-methyl-1,3-dihydro-isoindol-2-yl)-(2-isobutoxy-5-methanesulfonyl-phenyl)-methanone], the IC50 is 0.016 µM.
Regarding `CCOc1cc2c(cc1C(F)(F)F)CN(C(=O)c1cc(S(C)(=O)=O)ccc1OC(C)C)C2` [Example 240], the IC50 was determined as 0.0456 µM.
With `C[C@H](Oc1ccc(S(C)(=O)=O)cc1C(=O)N1Cc2ccc(C(F)(F)F)cc2C1)C(F)(F)F` [Example 15, [5-Methanesulfonyl-2-((S)-2,2,2-trifluoro-1-methyl-ethoxy)-phenyl]-(5-trifluoromethyl-1,3-dihydro-isoindol-2-yl)-methanone] the figure was 0.021 µM; with `COc1cc2c(cc1Cl)CN(C(=O)c1cc(S(C)(=O)=O)ccc1SC(C)C)C2` [Example 71, (5-Chloro-6-methoxy-1,3-dihydro-isoindol-2-yl)-(2-isopropylsulfanyl-5-methanesulfonyl-phenyl)-methanone], 0.049 µM.
With `C[C@H](Oc1ccc(S(C)(=O)=O)cc1C(=O)N1Cc2ccc(-c3cc(F)cc(F)c3)cc2C1)C(F)(F)F` [Example 337] the figure was 0.022 µM; with `Cc1cc2c(cc1C(F)(F)F)CN(C(=O)c1cc(S(C)(=O)=O)ccc1O[C@@H](C)C(F)(F)F)C2` [Example 99, [5-Methanesulfonyl-2-((S)-2,2,2-trifluoro-1-methyl-ethoxy)-phenyl]-(5-methyl-6-trifluoromethyl-1,3-dihydro-isoindol-2-yl)-methanone], 0.042 µM.
